{
  "source": "paper PMC5125864",
  "about": "(Molecular and biochemical parasitology, 2016)",
  "molecular_target": "T1, ehRad51 (Entamoeba histolytica, UniProt C4M4K4)",
  "T1 sequence (C4M4K4 1-366)": "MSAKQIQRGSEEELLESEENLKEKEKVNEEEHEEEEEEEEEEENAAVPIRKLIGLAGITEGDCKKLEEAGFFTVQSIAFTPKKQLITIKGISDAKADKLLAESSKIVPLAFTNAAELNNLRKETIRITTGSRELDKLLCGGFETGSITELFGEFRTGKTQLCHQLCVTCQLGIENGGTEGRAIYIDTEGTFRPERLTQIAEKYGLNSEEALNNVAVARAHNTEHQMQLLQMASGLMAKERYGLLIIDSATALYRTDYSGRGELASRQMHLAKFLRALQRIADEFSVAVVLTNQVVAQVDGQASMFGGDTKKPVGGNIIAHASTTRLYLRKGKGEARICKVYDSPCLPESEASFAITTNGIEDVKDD",
  "assay": "oligonucleotide DNA strand exchange",
  "type": "biochemical",
  "data": [
    {"smiles": "O=S(=O)(O)c1cc(N=C=S)ccc1C=Cc1ccc(N=C=S)cc1S(=O)(=O)O", "note": "[DIDS, 4,4′-diisothiocyanostilbene-2,2′-disulfonic acid]", "values": [
      {"measurement": "IC50", "result": 18.5, "unit": "µM"}
    ]}
  ]
}
